Measured values as given in ChEMBL document CHEMBL1268872 (Bioorg Med Chem Lett, 2010).
pIC50: −log10 of the molar value.

Assays:
[1] = target: T1, Mitogen-activated protein kinase 14 (Homo sapiens, UniProt Q16539); experiment: Binding affinity to phosphorylated p38alpha by fluoroprobe binding assay
[2] = target: T1, Mitogen-activated protein kinase 14; experiment: Binding affinity to unphosphorylated p38alpha assessed as change in melting temperature
[3] = target: T1, Mitogen-activated protein kinase 14; experiment: Binding affinity to unphosphorylated p38alpha by fluoroprobe binding assay
[4] = target: T1, Mitogen-activated protein kinase 14; experiment: Binding affinity to phosphorylated p38alpha assessed as change in melting temperature
[5] = target: T1, Mitogen-activated protein kinase 14; experiment: Inhibition of p38alpha autophosphorylation
Ephrin type-B receptor 2 = target: T2, Ephrin type-B receptor 2 (Homo sapiens, UniProt P29323); experiment: Inhibition of EPHB2
T2 sequence (P29323 whole entry): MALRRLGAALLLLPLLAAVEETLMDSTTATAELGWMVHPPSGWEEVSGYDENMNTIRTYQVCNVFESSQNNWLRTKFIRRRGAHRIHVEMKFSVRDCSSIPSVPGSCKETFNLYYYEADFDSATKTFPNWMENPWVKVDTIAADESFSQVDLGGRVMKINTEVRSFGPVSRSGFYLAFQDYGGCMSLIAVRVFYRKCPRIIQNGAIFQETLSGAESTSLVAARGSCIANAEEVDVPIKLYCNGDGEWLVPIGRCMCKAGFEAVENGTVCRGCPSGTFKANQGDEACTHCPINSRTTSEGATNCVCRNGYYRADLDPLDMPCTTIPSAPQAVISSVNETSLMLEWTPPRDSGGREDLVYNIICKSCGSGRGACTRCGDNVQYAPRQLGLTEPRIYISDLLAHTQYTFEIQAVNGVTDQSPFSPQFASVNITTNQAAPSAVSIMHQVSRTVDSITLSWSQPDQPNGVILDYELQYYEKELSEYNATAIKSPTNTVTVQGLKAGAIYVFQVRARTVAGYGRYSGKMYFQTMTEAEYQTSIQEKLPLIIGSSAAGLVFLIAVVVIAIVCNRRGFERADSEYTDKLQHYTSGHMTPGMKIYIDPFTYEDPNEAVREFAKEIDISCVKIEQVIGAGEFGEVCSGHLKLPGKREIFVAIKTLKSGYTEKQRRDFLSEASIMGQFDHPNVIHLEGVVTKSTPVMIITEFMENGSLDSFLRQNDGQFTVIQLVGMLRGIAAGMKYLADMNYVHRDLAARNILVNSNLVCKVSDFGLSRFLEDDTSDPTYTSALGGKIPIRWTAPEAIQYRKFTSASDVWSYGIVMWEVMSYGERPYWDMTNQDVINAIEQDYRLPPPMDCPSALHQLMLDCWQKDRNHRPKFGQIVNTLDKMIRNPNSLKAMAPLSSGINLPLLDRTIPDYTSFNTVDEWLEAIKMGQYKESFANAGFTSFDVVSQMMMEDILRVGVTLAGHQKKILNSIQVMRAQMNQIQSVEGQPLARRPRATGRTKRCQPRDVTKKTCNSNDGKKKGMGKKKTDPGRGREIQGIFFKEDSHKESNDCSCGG

[6] = target: Serine/threonine-protein kinase B-raf (Homo sapiens, UniProt P15056); experiment: Inhibition of BRAF
Sequence of Serine/threonine-protein kinase B-raf (P15056 whole entry): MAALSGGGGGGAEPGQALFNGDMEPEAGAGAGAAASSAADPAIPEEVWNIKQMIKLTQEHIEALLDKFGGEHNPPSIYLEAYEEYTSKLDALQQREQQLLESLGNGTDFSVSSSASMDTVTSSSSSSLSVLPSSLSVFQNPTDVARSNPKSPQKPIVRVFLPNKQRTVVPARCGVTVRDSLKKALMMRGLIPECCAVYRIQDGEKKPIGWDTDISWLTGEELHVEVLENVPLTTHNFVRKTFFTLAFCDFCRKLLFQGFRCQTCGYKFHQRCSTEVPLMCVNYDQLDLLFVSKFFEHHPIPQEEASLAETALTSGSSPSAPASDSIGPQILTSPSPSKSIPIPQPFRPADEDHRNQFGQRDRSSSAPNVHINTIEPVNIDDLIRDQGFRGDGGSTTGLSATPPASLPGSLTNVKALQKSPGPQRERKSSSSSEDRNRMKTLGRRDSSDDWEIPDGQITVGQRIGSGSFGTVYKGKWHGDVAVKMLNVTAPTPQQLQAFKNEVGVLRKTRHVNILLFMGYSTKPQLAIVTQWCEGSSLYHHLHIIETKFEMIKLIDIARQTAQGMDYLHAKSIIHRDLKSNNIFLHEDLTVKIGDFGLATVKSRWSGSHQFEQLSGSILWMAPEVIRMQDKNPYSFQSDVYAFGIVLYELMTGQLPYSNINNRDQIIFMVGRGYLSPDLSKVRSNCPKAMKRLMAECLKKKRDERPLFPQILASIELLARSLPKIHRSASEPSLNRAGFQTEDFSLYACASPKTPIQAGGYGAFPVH

[7] = target: T1, Mitogen-activated protein kinase 14; experiment: Inhibition of p38alpha by fluoroprobe binding assay

T1 sequence (Q16539 whole entry): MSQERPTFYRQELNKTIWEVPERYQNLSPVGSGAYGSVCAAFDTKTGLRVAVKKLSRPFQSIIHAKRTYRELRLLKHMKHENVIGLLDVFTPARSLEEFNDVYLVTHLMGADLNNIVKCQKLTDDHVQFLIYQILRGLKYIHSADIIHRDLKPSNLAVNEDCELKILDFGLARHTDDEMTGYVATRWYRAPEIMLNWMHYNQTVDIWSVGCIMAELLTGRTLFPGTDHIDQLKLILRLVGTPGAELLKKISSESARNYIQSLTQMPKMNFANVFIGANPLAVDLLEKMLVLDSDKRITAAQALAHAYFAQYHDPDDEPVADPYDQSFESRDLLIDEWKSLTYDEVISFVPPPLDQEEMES

Structure (SMILES)	pIC50 [1]	ΔTm [2] [°C]	pIC50 [3]	ΔTm [4] [°C]	pIC50 [5]	pIC50 (Ephrin type-B receptor 2)	pIC50 [6]	pIC50 [7]
NC(=O)Cc1cccc(-n2nc(C3CCCC3)cc2NC(=O)Nc2cccc(Cl)c2Cl)c1	8.00	12.2						
NC(=O)Cc1cccc(-n2nc(-c3ccccc3F)cc2NC(=O)Nc2cccc(Cl)c2Cl)c1	7.40	8.8	7.60	7.1				
NC(=O)Cc1cccc(-n2nc(-c3cccs3)cc2NC(=O)Nc2cccc(Cl)c2Cl)c1	7.18	11.2		8.5	< 5.30	< 4.30		
CC(C)(C)c1cc(NC(=O)Nc2cccc(Cl)c2Cl)n(-c2cccc(CC(N)=O)c2)n1		12.8		9.1		7.09	7.77	
NC(=O)Cc1cccc(-n2nc(-c3ccsc3)cc2NC(=O)Nc2cccc(Cl)c2Cl)c1	7.55	11.6	7.82	9.3				
CC(C)(C)c1cc(NC(=O)Nc2cccc3ccccc23)n(-c2cccc(C(=O)N3C(=O)OC[C@@H]3c3ccccc3)c2)n1								< 5.00
NC(=O)Cc1cccc(-n2nc(-c3ccccc3)cc2NC(=O)Nc2cccc(Cl)c2Cl)c1	7.10	8	6.92	5.4				
CC(C)(C)c1cc(NC(=O)Nc2cccc3ccccc23)n(-c2cccc(CC(N)=O)c2)n1		9.1		8.6				
CC(C)(C)c1cc(NC(=O)Nc2cccc(Cl)c2Cl)n(-c2ccc(CC(=O)N3CCS(=O)(=O)CC3)cc2)n1								8.15
